Laboratory results reported in patent US20030086868A1, “Actinium-225 complexes and conjugates for radioimmunotherapy” (priority 2002, published 2003).

Experiments:
[1] = In vivo biodistribution in nu/nu mice; settings: for 225Ac Biodistribution, Blood / 225Ac Biodistribution, Bone / 225Ac Biodistribution, Kidneys / 225Ac Biodistribution, Liver: average; for pattern of distribution: intraperitoneal, approx. 2 μCi, nu/nu mice, period of 5 days
Protocol: Counting was carried out half an hour after sample preparation.

[2] = in vivo; cited from earlier work
target cells = assay: Internalization of isotope into target cells; format: cell-based; settings: in 5 hours
[3] = system: antigen positive cell line; assay: In-vitro cell kill (3H-thymidine incorporation), antigen positive cell line; format: cell-based
[4] = biological target: T1, antigen excess (HuM195 is anti-CD33) (Homo sapiens, UniProt P20138); assay: Cell-based immunoreactivity study (binding of labeled antibody to antigen excess)
T1 construct: host or cells: unnamed antigen-bearing cells

[5] = system: antigen negative cell line; assay: In-vitro cell kill (3H-thymidine incorporation), antigen negative cell line; format: cell-based

T1 sequence (P20138 18-364): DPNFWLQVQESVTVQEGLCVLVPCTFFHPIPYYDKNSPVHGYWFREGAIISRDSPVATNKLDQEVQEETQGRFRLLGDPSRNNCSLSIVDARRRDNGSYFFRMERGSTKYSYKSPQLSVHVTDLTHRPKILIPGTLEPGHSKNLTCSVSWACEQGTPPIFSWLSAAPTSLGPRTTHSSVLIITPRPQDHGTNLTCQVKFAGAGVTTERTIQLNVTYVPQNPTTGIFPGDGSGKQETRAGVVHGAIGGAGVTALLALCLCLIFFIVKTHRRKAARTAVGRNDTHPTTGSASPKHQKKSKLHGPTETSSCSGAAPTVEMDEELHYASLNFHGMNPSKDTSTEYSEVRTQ

What does the source list for `CC(=O)[O-].CC(=O)[O-].CC(=O)[O-].[225Ac+3]` [^225Ac Acetate, reference compound]?
225Ac Biodistribution, Blood ([1]; 1 d): 0.1 % dose/g; 225Ac Biodistribution, Blood ([1]; 2 d): 0.2 % dose/g; 225Ac Biodistribution, Blood ([1]; 5 d): 0.0 % dose/g; 225Ac Biodistribution, Bone ([1]; 1 d): 13.3 % dose/g; 225Ac Biodistribution, Bone ([1]; 2 d): 12.0 % dose/g; 225Ac Biodistribution, Bone ([1]; 5 d): 17.1 % dose/g; 225Ac Biodistribution, Kidneys ([1]; 1 d): 3.8 % dose/g; 225Ac Biodistribution, Kidneys ([1]; 2 d): 3.2 % dose/g; 225Ac Biodistribution, Kidneys ([1]; 5 d): 2.8 % dose/g; 225Ac Biodistribution, Liver ([1]; 1 d): 46.6 % dose/g; 225Ac Biodistribution, Liver ([1]; 2 d): 43.1 % dose/g; 225Ac Biodistribution, Liver ([1]; 5 d): 68.5 % dose/g; pattern of distribution [1]: held up in the liver and bone but cleared from blood

With `O=P(O)(O)CN(CCN(CP(=O)(O)O)CP(=O)(O)O)CP(=O)(O)O` [^225Ac-EDTMP, ethylenediaminetetra-methylenephosphonic acid, metal not drawn] as the molecule, how does the excretion [2] read?
Its excretion is “poor”.

And the liver uptake [2]?
The liver uptake was “still substantial”.

For ^225Ac-HuM195-MeO-DOTA, which “isotope internalized in the target cells” value (target cells) is on record?
Its value is “more than 50%”.

What about the “LD50 in a 2-day assay” value ([3]; 2-day assay, positive cell line) of the same molecule?
The value was “about 1.4 nCi/ml”.

And the “LD50 in a 5-day assay” value ([3]; 5-day assay, specific activity of 0.035 Ci/g, 3H-thymidine incorporation)?
Its value is about 0.3 nCi/ml.

And the immunoreactive fraction [4]?
The immunoreactive fraction was about 70%.

And the “225Ac Biodistribution, Blood” value ([1]; 1 d)?
Its value is 10.1 % dose/g.

And the “225Ac Biodistribution, Blood” value ([1]; 2 d)?
The value was 10.2 % dose/g.

What about the “225Ac Biodistribution, Blood” value ([1]; 5 d) of the same molecule?
The value was 4.5 % dose/g.

What about the “225Ac Biodistribution, Bone” value ([1]; 1 d) of the same molecule?
Its value is 3.8 % dose/g.

What about the “225Ac Biodistribution, Bone” value ([1]; 2 d) of the same molecule?
Its value is 4.1 % dose/g.

And the “225Ac Biodistribution, Bone” value ([1]; 5 d)?
The value was 5.3 % dose/g.

What about the “225Ac Biodistribution, Kidneys” value ([1]; 1 d) of the same molecule?
The value was 4.6 % dose/g.

And the “225Ac Biodistribution, Kidneys” value ([1]; 2 d)?
The value was 5.2 % dose/g.

What about the “225Ac Biodistribution, Kidneys” value ([1]; 5 d) of the same molecule?
Its value is 4.6 % dose/g.

What about the “225Ac Biodistribution, Liver” value ([1]; 1 d) of the same molecule?
Its value is 8.8 % dose/g.

What about the “225Ac Biodistribution, Liver” value ([1]; 2 d) of the same molecule?
Its value is 10.0 % dose/g.

What about the “225Ac Biodistribution, Liver” value ([1]; 5 d) of the same molecule?
Its value is 20.7 % dose/g.

And the “pattern of distribution” value [1]?
Its value is “longer blood circulation time and less bone uptake”.

And the “LD50 in a 2-day assay” value [5]?
Its value is “about 28 nCi/ml”.
